From paper PMC6429214, “Design, Synthesis and Biological Evaluation of Isoxazole-Based CK1 Inhibitors Modified with Chiral Pyrrolidine Scaffolds” (Molecules, 2019)

Legend:
Assay in all cases: 33PanQinase panel
Assay type in all cases: biochemical
[1] = target: T1, CDK19/CycC (Homo sapiens, UniProt Q9BWU1); conditions: read-out: Residual Activity (%)
T1 construct: purchased ProQinase
Procedure: (§1) Figure 5 Dendrogram representation of the selectivity profile of 29d at a concentration of 1 μM in a panel of 320 wild-type kinases (ProQinase, Freiburg, Germany). The residual kinase activity was determined compared to DMSO control. Images were generated using TREEspot Software Tool, DISCOVERX CORPORATION 2010.
(§2) Figure S1. X-ray crystal structure of intermediate compound 25d (ORTEP drawing with ellipsoids at 30% probability). CCDC 1589043 contains the supplementary crystallographic data for this paper. The data can be obtained free of charge from The Cambridge Crystallographic Data Centre via www.ccdc.cam.ac.uk/structures.
(§3) Table S1 Data collection, structure refinement and Ramachrandran plot results of protein crystallization of CK1δ in complex with compound 30a and 30b, respectively.
(§4) Root-mean-square deviations
(§5) Additionally allowed 2.6 2.2
(§6) Table S2. Selectivity profile of compound 29d. The inhibitor has been screened at a concentration of 1 µM over a panel of 320 wild-type protein kinases by ProQinase GmbH (Freiburg, Germany) using an activity-based radiometric 33PanQinase® assay. Results are presented as percentage of residual kinase activity relative to […]
(§7) control. The final DMSO concentration was 1 % in each reaction-mix. Classification of protein kinase families refers to Manning et al. (Manning, G.; Whyte, D. B.; Martinez, R.; Hunter, T.; Sudarsanam, S. The Protein Kinase Complement of the Human Genome. Science 2002, 298, 1912–1934): AGC = containing PKA, PKG, PKC families; […] = containing Cdk, MAPK, GSK3, CLK families; STE = homologs of yeast sterile 7, sterile 11, sterile 20 kinases; TK = tyrosine kinase; TKL = tyrosine kinase-like.
(§8) Kinase name Kinase family Residual Activity (%)

[2] = target: T2, SGK3 (Homo sapiens, UniProt Q96BR1); conditions: SGK3, 1 µM; read-out: Residual Activity (%)
T2 construct: purchased ProQinase
Procedure: as §1, §2, §3, §4, §5, §6, §7, §8

[3] = target: T3, CLK4 (Homo sapiens, UniProt Q9HAZ1); conditions: CLK4, 1 µM; read-out: Residual Activity (%)
T3 construct: purchased ProQinase
Procedure: as §1, §2, §3, §4, §5, §6, §7, §8

[4] = target: T4, SIK2 (Homo sapiens, UniProt Q9H0K1); conditions: SIK2, 1 µM; read-out: Residual Activity (%)
T4 construct: purchased ProQinase
Procedure: as §1, §2, §3, §4, §5, §6, §7, §8

[5] = target: T5, MAP4K2 (Homo sapiens, UniProt Q12851); conditions: MAP4K2, 1 µM; read-out: Residual Activity (%)
T5 construct: purchased ProQinase
Procedure: as §1, §2, §3, §4, §5, §6, §7, §8

[6] = target: T6, GRK5 (Homo sapiens, UniProt P34947); conditions: GRK5, 1 µM; read-out: Residual Activity (%)
T6 construct: purchased ProQinase
Procedure: as §1, §2, §3, §4, §5, §6, §7, §8

[7] = target: T7, FGF-R2 (Homo sapiens, UniProt P21802); conditions: FGF-R2, 1 µM; read-out: Residual Activity (%)
T7 construct: purchased ProQinase
T7 sequence (P21802 22-821): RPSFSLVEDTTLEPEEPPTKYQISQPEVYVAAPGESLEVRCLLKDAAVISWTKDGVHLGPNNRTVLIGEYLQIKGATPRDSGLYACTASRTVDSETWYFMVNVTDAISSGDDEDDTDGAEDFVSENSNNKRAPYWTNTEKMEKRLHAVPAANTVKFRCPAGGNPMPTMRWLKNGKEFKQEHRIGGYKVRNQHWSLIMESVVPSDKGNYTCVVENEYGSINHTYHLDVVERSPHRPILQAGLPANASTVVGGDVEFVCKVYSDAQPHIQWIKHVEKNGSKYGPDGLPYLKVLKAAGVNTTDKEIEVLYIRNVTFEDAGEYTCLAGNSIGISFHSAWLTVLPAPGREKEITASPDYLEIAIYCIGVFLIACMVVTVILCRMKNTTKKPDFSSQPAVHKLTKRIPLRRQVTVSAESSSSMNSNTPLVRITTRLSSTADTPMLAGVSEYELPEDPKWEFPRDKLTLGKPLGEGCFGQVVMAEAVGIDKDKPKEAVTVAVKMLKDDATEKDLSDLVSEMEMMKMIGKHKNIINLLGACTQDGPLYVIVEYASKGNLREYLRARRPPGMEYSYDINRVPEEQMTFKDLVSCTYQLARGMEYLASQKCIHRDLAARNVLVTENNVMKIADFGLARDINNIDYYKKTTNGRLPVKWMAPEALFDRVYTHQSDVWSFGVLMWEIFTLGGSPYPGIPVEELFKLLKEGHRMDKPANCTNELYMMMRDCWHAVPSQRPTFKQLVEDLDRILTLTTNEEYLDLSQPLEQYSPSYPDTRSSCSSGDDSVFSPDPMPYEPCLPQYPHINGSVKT
Procedure: as §1, §2, §3, §4, §5, §6, §7, §8

[8] = target: T8, BUB1B (Homo sapiens, UniProt O60566); conditions: read-out: Residual Activity (%)
T8 construct: purchased ProQinase
Procedure: as §1, §2, §3, §4, §5, §6, §7, §8

[9] = target: T9, CK1-gamma3 (Homo sapiens, UniProt Q9Y6M4); conditions: CK1-gamma3, 1 µM; read-out: Residual Activity (%)
T9 construct: purchased ProQinase
Procedure: as §1, §2, §3, §4, §5, §6, §7, §8

[10] = target: T10, RIPK5 (Homo sapiens, UniProt Q6XUX3); conditions: RIPK5, 1 µM; read-out: Residual Activity (%)
T10 construct: purchased ProQinase
T10 sequence (Q6XUX3 whole entry): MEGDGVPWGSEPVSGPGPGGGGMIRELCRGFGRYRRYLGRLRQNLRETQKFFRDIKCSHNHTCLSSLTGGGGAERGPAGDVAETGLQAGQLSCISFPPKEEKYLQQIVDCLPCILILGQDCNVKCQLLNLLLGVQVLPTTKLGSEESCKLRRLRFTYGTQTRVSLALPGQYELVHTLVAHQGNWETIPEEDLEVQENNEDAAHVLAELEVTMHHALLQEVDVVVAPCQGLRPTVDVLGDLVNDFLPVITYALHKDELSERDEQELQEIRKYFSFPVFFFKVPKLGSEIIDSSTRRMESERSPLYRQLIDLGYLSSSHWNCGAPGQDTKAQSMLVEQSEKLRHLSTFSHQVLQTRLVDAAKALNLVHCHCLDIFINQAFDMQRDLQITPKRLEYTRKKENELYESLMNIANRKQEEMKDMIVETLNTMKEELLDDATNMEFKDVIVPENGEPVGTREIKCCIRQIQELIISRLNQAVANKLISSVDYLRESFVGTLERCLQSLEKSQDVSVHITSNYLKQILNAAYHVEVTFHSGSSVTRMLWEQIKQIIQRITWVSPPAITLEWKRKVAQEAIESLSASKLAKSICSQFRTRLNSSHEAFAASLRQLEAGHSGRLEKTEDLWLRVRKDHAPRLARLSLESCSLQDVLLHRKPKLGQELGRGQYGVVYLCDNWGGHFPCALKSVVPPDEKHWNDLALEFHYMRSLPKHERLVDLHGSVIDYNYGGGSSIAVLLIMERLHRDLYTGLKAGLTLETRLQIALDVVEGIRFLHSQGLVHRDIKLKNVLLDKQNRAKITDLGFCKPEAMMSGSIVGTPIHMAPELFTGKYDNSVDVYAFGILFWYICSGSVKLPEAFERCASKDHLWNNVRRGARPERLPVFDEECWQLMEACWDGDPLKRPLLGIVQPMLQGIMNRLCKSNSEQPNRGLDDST
Procedure: as §1, §2, §3, §4, §5, §6, §7, §8

[11] = target: T11, GRK7 (Homo sapiens, UniProt Q8WTQ7); conditions: GRK7, 1 µM; read-out: Residual Activity (%)
T11 construct: purchased ProQinase
Procedure: as §1, §2, §3, §4, §5, §6, §7, §8

[12] = target: T12, ERK7 (Homo sapiens, UniProt Q8TD08); conditions: ERK7, 1 µM; read-out: Residual Activity (%)
T12 construct: purchased ProQinase
Procedure: as §1, §2, §3, §4, §5, §6, §7, §8

[13] = target: T13, CDK9/CycT1 (Homo sapiens, UniProt P50750); conditions: CDK9/CycT1, 1 µM; read-out: Residual Activity (%)
T13 construct: purchased ProQinase
Procedure: as §1, §2, §3, §4, §5, §6, §7, §8

[14] = target: T14, ACV-R1 (Homo sapiens, UniProt Q04771); conditions: ACV-R1, 1 µM; read-out: Residual Activity (%)
T14 construct: purchased ProQinase
T14 sequence (Q04771 21-509): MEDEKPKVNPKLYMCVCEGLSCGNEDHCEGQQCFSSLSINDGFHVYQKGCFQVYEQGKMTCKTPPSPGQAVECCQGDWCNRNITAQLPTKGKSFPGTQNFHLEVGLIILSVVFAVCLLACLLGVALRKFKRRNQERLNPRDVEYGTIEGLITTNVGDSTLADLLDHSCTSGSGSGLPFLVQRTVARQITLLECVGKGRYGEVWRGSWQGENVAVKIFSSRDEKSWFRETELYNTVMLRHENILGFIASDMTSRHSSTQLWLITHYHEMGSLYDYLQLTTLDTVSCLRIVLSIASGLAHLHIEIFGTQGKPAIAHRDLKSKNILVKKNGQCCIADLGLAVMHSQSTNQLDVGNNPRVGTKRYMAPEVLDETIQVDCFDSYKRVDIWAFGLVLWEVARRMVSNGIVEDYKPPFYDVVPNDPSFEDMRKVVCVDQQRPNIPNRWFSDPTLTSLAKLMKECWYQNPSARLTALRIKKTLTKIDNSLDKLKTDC
Procedure: as §1, §2, §3, §4, §5, §6, §7, §8

[15] = target: T15, EIF2AK2 (Homo sapiens, UniProt P19525); conditions: EIF2AK2, 1 µM; read-out: Residual Activity (%)
T15 construct: purchased ProQinase
Procedure: as §1, §2, §3, §4, §5, §6, §7, §8

[16] = target: T16, PLK3 (Homo sapiens, UniProt Q9H4B4); conditions: PLK3, 1 µM; read-out: Residual Activity (%)
T16 construct: purchased ProQinase
Procedure: as §1, §2, §3, §4, §5, §6, §7, §8

[17] = target: T17, STK23 (Homo sapiens, UniProt Q9UPE1); conditions: STK23, 1 µM; read-out: Residual Activity (%)
T17 construct: purchased ProQinase
Procedure: as §1, §2, §3, §4, §5, §6, §7, §8

[18] = target: T18, MKK4 (Homo sapiens, UniProt P45985); conditions: MKK4, 1 µM; read-out: Residual Activity (%)
T18 construct: purchased ProQinase
Procedure: as §1, §2, §3, §4, §5, §6, §7, §8

[19] = target: T19, DYRK4 (Homo sapiens, UniProt Q9NR20); conditions: DYRK4, 1 µM; read-out: Residual Activity (%)
T19 construct: purchased ProQinase
T19 sequence (Q9NR20 whole entry): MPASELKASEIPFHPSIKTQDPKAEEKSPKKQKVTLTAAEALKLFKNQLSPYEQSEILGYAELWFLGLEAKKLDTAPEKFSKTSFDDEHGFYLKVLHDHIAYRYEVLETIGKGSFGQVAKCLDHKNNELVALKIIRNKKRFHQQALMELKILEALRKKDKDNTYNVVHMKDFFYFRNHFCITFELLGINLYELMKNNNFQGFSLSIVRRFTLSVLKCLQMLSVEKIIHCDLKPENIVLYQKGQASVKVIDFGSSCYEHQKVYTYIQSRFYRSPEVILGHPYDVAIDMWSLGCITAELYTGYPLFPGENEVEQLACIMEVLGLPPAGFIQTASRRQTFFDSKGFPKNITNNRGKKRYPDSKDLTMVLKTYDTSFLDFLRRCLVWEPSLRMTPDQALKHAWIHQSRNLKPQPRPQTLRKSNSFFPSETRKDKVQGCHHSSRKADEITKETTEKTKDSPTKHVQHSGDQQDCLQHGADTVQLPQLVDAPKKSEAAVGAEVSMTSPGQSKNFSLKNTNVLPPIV
Procedure: as §1, §2, §3, §4, §5, §6, §7, §8

[20] = target: T20, SAK (Homo sapiens, UniProt O00444); conditions: read-out: Residual Activity (%)
T20 construct: purchased ProQinase
Procedure: as §1, §2, §3, §4, §5, §6, §7, §8

[21] = target: T21, MAP3K9 (Homo sapiens, UniProt P80192); conditions: MAP3K9, 1 µM; read-out: Residual Activity (%)
T21 construct: purchased ProQinase
T21 sequence (P80192 whole entry): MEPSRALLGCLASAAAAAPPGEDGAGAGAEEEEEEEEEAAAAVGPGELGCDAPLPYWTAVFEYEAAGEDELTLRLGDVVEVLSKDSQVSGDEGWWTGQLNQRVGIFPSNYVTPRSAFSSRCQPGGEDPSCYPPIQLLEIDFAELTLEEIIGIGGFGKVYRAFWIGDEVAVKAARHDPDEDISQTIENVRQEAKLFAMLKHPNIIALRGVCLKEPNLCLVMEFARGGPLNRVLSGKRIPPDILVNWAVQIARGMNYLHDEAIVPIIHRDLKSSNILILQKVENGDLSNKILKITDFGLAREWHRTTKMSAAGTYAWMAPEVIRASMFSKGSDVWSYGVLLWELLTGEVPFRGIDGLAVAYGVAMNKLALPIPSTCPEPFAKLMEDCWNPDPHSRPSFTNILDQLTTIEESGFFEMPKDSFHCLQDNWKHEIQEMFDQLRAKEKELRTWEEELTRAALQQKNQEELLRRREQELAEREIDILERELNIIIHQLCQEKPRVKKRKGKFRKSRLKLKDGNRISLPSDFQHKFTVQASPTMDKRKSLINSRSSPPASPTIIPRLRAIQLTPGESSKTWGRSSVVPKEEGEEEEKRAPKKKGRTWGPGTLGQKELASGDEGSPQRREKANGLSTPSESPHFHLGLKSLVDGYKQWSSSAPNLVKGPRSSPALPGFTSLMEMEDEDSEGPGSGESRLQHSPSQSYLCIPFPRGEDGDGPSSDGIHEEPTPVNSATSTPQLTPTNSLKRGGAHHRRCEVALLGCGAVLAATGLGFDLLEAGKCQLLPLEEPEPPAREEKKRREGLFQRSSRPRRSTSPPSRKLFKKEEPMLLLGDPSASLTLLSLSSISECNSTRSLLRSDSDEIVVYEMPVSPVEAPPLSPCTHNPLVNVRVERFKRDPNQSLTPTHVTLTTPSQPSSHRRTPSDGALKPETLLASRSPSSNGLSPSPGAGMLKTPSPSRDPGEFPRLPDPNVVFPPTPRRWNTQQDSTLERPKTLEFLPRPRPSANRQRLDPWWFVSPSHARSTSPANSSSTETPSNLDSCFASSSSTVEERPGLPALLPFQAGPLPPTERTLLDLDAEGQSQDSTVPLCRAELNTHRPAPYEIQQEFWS
Procedure: as §1, §2, §3, §4, §5, §6, §7, §8

[22] = target: T22, MKNK1 (Homo sapiens, UniProt Q9BUB5); conditions: MKNK1, 1 µM; read-out: Residual Activity (%)
T22 construct: purchased ProQinase
Procedure: as §1, §2, §3, §4, §5, §6, §7, §8

[23] = target: T23, VEGF-R2 (Homo sapiens, UniProt P35968); conditions: VEGF-R2, 1 µM; read-out: Residual Activity (%)
T23 construct: purchased ProQinase
Procedure: as §1, §2, §3, §4, §5, §6, §7, §8

[24] = target: T24, WNK3 (Homo sapiens, UniProt Q9BYP7); conditions: WNK3, 1 µM; read-out: Residual Activity (%)
T24 construct: purchased ProQinase
Procedure: as §1, §2, §3, §4, §5, §6, §7, §8

[25] = target: T25, CDK3/CycC (Homo sapiens, UniProt Q00526); conditions: read-out: Residual Activity (%)
T25 construct: purchased ProQinase
Procedure: as §1, §2, §3, §4, §5, §6, §7, §8

[26] = target: T26, CDK7/CycH/MAT1 (Homo sapiens, UniProt P50613); conditions: CDK7/CycH/MAT1, 1 µM; read-out: Residual Activity (%)
T26 construct: purchased ProQinase
T26 sequence (P50613 whole entry): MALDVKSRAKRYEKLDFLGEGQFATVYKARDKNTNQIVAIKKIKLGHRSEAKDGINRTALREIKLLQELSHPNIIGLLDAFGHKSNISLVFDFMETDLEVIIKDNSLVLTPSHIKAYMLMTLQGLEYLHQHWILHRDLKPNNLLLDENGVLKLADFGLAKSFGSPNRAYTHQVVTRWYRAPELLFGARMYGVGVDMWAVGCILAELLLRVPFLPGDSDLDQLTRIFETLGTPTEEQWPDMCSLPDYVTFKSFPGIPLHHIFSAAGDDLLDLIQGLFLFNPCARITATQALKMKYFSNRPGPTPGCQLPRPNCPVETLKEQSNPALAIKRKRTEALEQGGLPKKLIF
T26 sequence (P51946 whole entry partner): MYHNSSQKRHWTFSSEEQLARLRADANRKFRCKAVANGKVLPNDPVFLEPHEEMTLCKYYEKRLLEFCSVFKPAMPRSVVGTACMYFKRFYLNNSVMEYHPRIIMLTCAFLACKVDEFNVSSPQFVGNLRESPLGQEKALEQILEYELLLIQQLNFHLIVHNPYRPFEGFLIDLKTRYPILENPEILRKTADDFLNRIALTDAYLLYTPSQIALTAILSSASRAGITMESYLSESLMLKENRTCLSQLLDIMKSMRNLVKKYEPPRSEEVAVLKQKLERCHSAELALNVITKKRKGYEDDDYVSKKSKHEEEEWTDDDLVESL
T26 sequence (P51948 whole entry partner): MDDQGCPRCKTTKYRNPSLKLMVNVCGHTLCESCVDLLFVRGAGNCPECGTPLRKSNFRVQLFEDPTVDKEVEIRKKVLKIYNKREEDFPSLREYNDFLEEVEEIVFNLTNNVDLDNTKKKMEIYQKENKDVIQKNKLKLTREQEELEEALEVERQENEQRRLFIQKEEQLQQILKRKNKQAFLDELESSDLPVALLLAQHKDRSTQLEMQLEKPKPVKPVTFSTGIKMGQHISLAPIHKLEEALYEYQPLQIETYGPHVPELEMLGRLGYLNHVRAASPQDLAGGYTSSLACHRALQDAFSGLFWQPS
Procedure: as §1, §2, §3, §4, §5, §6, §7, §8

SMILES: COc1ccc(-c2cc(C(=O)Nc3cc(-c4c(-c5ccc(F)cc5)noc4C(C)C)ccn3)n(CC3NCC(O)C3O)c2)cc1 (centres unmarked) [29d]
- remaining activity at 1 µM [1]: 84%
- remaining activity at 1 µM [2]: 97%
- remaining activity at 1 µM [3]: 104%
- remaining activity at 1 µM [4]: 98%
- remaining activity at 1 µM [5]: 93%
- remaining activity at 1 µM [6]: 97%
- remaining activity at 1 µM [7]: 94%
- remaining activity at 1 µM [8]: 90%
- remaining activity at 1 µM [9]: 74%
- remaining activity at 1 µM [10]: 99%
- remaining activity at 1 µM [11]: 107%
- remaining activity at 1 µM [12]: 102%
- remaining activity at 1 µM [13]: 103%
- remaining activity at 1 µM [14]: 105%
- remaining activity at 1 µM [15]: 132%
- remaining activity at 1 µM [16]: 112%
- remaining activity at 1 µM [17]: 96%
- remaining activity at 1 µM [18]: 109%
- remaining activity at 1 µM [19]: 80%
- remaining activity at 1 µM [20]: 92%
- remaining activity at 1 µM [21]: 116%
- remaining activity at 1 µM [22]: 82%
- remaining activity at 1 µM [23]: 110%
- remaining activity at 1 µM [24]: 103%
- remaining activity at 1 µM [25]: 100%
- remaining activity at 1 µM [26]: 98%
